Measured values from the NIST ThermoML archive (doi:10.1016/j.jct.2010.05.007).
± gives the expanded uncertainty stated by the source.

Experiments:
[1] = Crystal 1; Adiabatic calorimetry
[2] = Molar enthalpy of transition or fusion; conditions: Crystal 1; Adiabatic calorimetry
[3] = molar heat capacity at constant pressure; conditions: 298 K; 101.33 kPa; Liquid; Vacuum adiabatic calorimetry

Triple point temperature [1]: 291.87 ± 0.05 K | Molar enthalpy of transition or fusion [2]: 4.54 ± 0.0478 kcal/mol | molar heat capacity at constant pressure [3]: 310 ± 2.4 J/K/mol
Compound: CCCCn1cc[n+](C)c1.[I-] [1-butyl-3-methylimidazolium iodide]
